Data reported in paper PMC4947679, “Quantitative In Vitro and In Vivo Evaluation of Intestinal and Blood-Brain Barrier Transport Kinetics of the Plant N-Alkylamide Pellitorine” (BioMed Research International, 2016).

How the values were obtained:
[1] = Caco-2 cell permeability assay; format: in vitro ADME, human; conditions: human, Caco-2; positive (high permeability) control, 20 μM
Experimental: The Caco-2 cell line originated from a human colorectal carcinoma and was maintained in Dulbecco's modified Eagle's medium (DMEM) (95% humidity, 37°C, 5% CO2), supplemented with 10% (V/V) fetal bovine serum, 100 U/mL penicillin and 100 μg/mL streptomycin, 2 mM L-glutamine, and 1% nonessential amino acids (all from Invitrogen/GIBCO, Ghent, Belgium).
The Caco-2 cell intestinal model was used to investigate the gut mucosa permeation of pellitorine. On each Transwell (Corning Costar, New York, USA) membrane insert filter (0.4 μm pore size, 12 mm filter diameter), the cells were seeded at a density of 2.6 · 10^5 cells/cm^2 cells and cultivated in the described supplemented DMEM. Every second day, the medium was changed. During a period of 21–29 days, the cells were grown and differentiated until monolayers were formed. The integrity of the monolayers was checked via the measurement of transepithelial electrical resistance (TEER) of the monolayers with a Millicell-ERS system (Millipore Corp., Bedford, MA, USA) before and after the transport experiments. The experiments were performed in duplicate for each dose solution. Transport experiments were carried out according to Hubatsch et al. in two directions: from the apical-to-basolateral (ab) direction and from the basolateral-to-apical (ba) direction in Hanks' Balanced Salt solution. Two dose solutions of pellitorine (in Anacyclus pyrethrum extract) of 1 μg/mL in 0.5% EtOH (further indicated as DS1) and of 56 μg/mL in 0.5% of a mixture of vitamin E-TPGS (33.3%), EtOH (11.1%), PEG 400 (33.3%), and PG (22.2%) (further indicated as DS2) dissolved in HBSS were tested.
Final apical volumes of 0.4 mL and basolateral volumes of 1.2 mL were used for 12 mm filter supports during the transport experiment. After 15, 30, 60, 90, and 120 min, samples were taken from the receiver compartment (basolateral to apical transport: 100 μL, apical-to-basolateral transport: 300 μL) and immediately replaced by fresh HBSS. […] Pellitorine was quantified using a ultraperformance liquid chromatography-tandem mass spectrometry (UPLC-MS^2) method as described below.
The apparent permeability coefficient (P app in cm/s) of pellitorine in DS2 was calculated using a sink condition equation, while P app of pellitorine in DS1 was calculated using a nonsink equation. From Fick's first law, J = −D × [dC(x)]/dx (J is the flux or transfer rate along the donor-to-receptor side, D is the diffusion coefficient, x is the distance from the donor compartment, and C(x) is the concentration in the barrier at the coordinate x in the barrier), the following differential equation is derived: dM r(t)/dt = P app × A × [C d(t) − C r(t)], in which P app is the apparent permeability coefficient (a product of distribution coefficient with diffusion coefficient divided by the barrier thickness), M r is the amount of substance in the receiver chamber, A is the cross-sectional area of the barrier, C d is the donor concentration, and C r is the receiver concentration. This differential equation can be solved to calculate P app using different initial conditions depending on sink or nonsink conditions. In case of sink conditions, the following equation was obtained from the amount of compound transported per time dM r(t)/dt with the receiver concentration set to zero [18, 20]:(1) Mrt/Cd,0=Papp×A×t+c, where P app is the apparent permeability coefficient (cm/s), A is the surface area of the filter (1.12 cm^2), C d,0 is the initial concentration in the donor chamber (μg/mL), t is the time (s), and c is a constant term which vanishes, since M r is initially zero at t = 0.
The donor concentration at each time point was calculated by taking into account the amount of compound which already permeated through the cell monolayer during that time interval. In this way, the reduction in donor concentration after every sampling was also taken into account.

[2] = parameters: method as in PMID 19399718; conditions: oral gavage in rats; cited from earlier work
[3] = Blood-to-brain transport, multiple time regression (MTR) analysis in mice; conditions: mice, injection into jugular vein, MTR
Experimental: Seven-to-ten-week-old female, Institute for Cancer Research, Caesarean Derived-1 (ICR-CD-1) mice (Harlan Laboratories, Venray, Netherlands) weighing 29–32 g were used for the BBB transport experiments. The experiments were performed according to the Ethical Committee principles of laboratory animal welfare as approved by Ghent University (Faculty of Veterinary Medicine, number EC2014/128).
An in vivo multiple time regression (MTR) analysis was performed in order to determine whether pellitorine could enter the brain. A dose solution of 1.8 mg/mL pure pellitorine dissolved in 6.9% EtOH, 2.5% dimethylacetamide, and 0.5% tween 80 (all w/w) diluted in lactated Ringer's solution containing 1% BSA was prepared. After anesthetizing the mice intraperitoneally with a 40% (w/V) urethane solution (3 g/kg), the jugular internalis vein and carotid artery were isolated and 20 μL of the pellitorine dose solution was injected into the jugular vein. After 1, 3, 5, 10, 12.5, and 15 min after injection (with start and end in duplicate), blood was collected from the carotid artery. Immediately thereafter, the mice were decapitated and the brains were isolated. […] The serum concentrations of pellitorine were plotted against the time (expressed in min). The curve was fitted using a first-order kinetic, two-compartment model: C(t) = C 1 × e ^−α×t + C 2 × e ^−β×t, in which C is the concentration of pellitorine in serum at time t, α and β are hybrid constants, dependent on the rate constants k e (elimination rate constant), k 1,2 (rate constant between central and peripheral tissue compartment), k 2,1 (rate constant between peripheral tissue and central compartment), C 1 is the concentration obtained after extrapolation of the distribution phase α to the y-axis, and C 2 is the concentration obtained after extrapolation of the elimination phase β to the y-axis. The ratio of the pellitorine brain and serum concentration (μL/g) was plotted versus the exposure time (θ), which is a derived time variable of the Gjedde-Patlak plot, to determine the BBB influx kinetics of pellitorine.
The exposure time is computed as θ = ∫0 ^T((C s(t) · dt)/C s(T)) and is defined as the integral of the concentration of pellitorine in serum from start (t = 0 min) to time T, divided by the concentration of pellitorine in serum at time T. The integral of the concentration of pellitorine in serum from zero to time T is the area under the curve until time T.
The brain uptake of pellitorine was fitted using a biphasic model, as elaborated by Wong et al.: (4) CbrainT/CsTK·θ+Vg·1−e^−θ·K1−K/Vg+V0≅K=0Vg·1−e^−θ·K1/Vg+V0 in which C brain(T) is the concentration of pellitorine in the brain at time T (ng/g), C s(T) the concentration of pellitorine in serum at time T (ng/μL), K the net clearance (μL/(g·min)), V g the tissue brain distribution volume (μL/g), K 1 the unidirectional clearance from pellitorine from blood to brain (i.e., the unidirectional brain transfer coefficient, also referred to as influx rate) (μL/(g·min)), and V 0 the vascular brain distribution volume (μL/g).

CC(C)NCC(O)COc1cccc2ccccc12 (stereo not drawn) [propranolol, reference compound]
Papp A→B at 120 min, 20 μM [1]: 19.1 ×10⁻⁶ cm/s

dodeca-2E,4E,8E,10E/Z-tetraenoic acid isobutylamides
elimination half-life [2]: 1.20 h

Dermorphin [reference compound]
unidirectional influx rate K 1 [3]: 0.26 µL/g/min
